Measured values published in patent publication US20210276960A1, “INHIBITORS OF TISSUE TRANSGLUTAMINASE 2 (TG2) AND USES THEREOF” (Northwestern University, priority 2020, published 2021).

Assays:
OVCAR5 cells = assay: Wound-healing assay, OVCAR5; assay type: cell-based, human; conditions: 8 μM, 24 hours
Method: Wound Healing was Performed in 12-Well Plates Coated with 1 μg/Ml FN (Sigma, #1141) overnight at 4° C. OC cells were plated at a density of 2×10^5 cells/well in media containing 2% FBS. Under these conditions cells adhered on substrate, but cell proliferation was minimized. After 16 hours, the cell monolayer was scraped in straight line. Cell debris was removed and serum free media containing selected SMIs or control was replenished. For consistency during image acquisition, a reference point was marked close to the scratch mark and the plate was imaged under phase-contrast microscope at 0, 2, 6, 12 and 24 hours. Wound closure was assessed as the distance between the wound edges, calculated and quantified using the Image Pro-Express software. The percentage of wound closure was evaluated using the formula […]. The rate of migration (μm/h) of OC cells into the wound space was evaluated as the distance difference between wound edges at 0 and 24 h, divided by 24. The experiments were performed in duplicates.

[1] = system: OVCAR433 cells adhesion to FN; assay: Solid phase adhesion assay to FN, OVCAR433; assay type: cell-based; parameters: inhibition of adhesion to FN relative to TG53: dose or concentration left out as unconfirmed
Method: (§1) Cells labeled with calcein AM (Life Technologies, #L3224) were seeded at a density of 4×10^4 cells in 96-well plates pre-coated with FN (5 μg/mL, Sigma, #F1141), and blocked using 1% BSA (Sigma, #A9647) in PBS in the presence of selected compounds diluted at the specified concentrations, in serum free media. After 45 minutes, unattached cells were washed using PBS containing 1 mM MgCl2(Sigma, #M8266) and adherent cells were quantified in a SpectraMaxGeminiXS fluorescence plate reader (Molecular Devices, Palo Alto, Calif.) at 530 nm wavelength. Experiments were performed inquadruplicate and repeated at least twice.

SKOV3-GFP cells = assay: In vivo cell attachment to the peritoneum; parameters: species or system mice; conditions: for unattached OC cells recovered from the peritoneal cavity: NSG mice, ip, 10 μg/kg, 2 hours after injection
[2] = system: OVCAR5 cells adhesion to FN; assay: Solid phase adhesion assay to FN, OVCAR5; assay type: cell-based, human; parameters: inhibition of adhesion to FN relative to TG53: dose or concentration left out as unconfirmed
Method: as §1

[3] = system: SKOV3 cells adhesion to collagen-1; assay: SKOV3 adhesion to collagen-1 coated wells; assay type: cell-based; conditions: 25 μM, collagen-1 20 μg/ml
Method: FIG. 13. Top SMIs inhibit cell adhesion to FN. A, Effects of top compounds (25 μM) on SKOV3 cells adhesion to FN. B, Dose-dependent effects (1-25 μM) of TG53 on SKOV3 cell adhesion to FN. […] D, Effects of TG53 (25 μM) on SKOV3 cells adhesion to wells coated with collagen-1 (20 μg/ml). E, Effects of TG53 (25 μM) on SKOV3-control or AS-TG2 cells adhesion to FN. Bars represent means+/−SEM of quadruplicate measurements. * denote p<0.05.
as §1

[4] = Pharmacokinetic assessment; assay type: in vivo, mice; conditions: for AUC0-∞ / Cl/F / cmax / t1/2 / tmax: 17.46 mg/Kg
Description: Experiment 2: Pharmacokinetic (PK) assessment. PK studies using the highest safe dose will be conducted on lead compounds that were functionally validated and for which a single dose NOAEL could be established (Aim 3A). These will be carried out by the Sanford Burnham Pharmacology Core (see attached LOS). While ip dosing may not be the preferred route of administration for an eventual cancer drug, these studies using ip dosing will give us data on many PK parameters, including bioavailability, which will be useful in prioritizing and triaging optimized compounds for testing using other routes, e.g., oral. PK parameters will be determined including Cmax (maximum plasma concentration), Tmax (time point of maximum concentration), VdSS (volume of distribution at steady-state), ClE (elimination clearance), AUC (area under the curve) t, (elimination half-life), and oral bioavailability (% F) will be obtained (with the inclusion of an i.v. dosed cohort). […] Our goal will be to identify a compound that has a plasma AUC >5× its cell viability EC50, a t1-2>2 hrs, and low-to-moderate clearance. […] Toxicology and pathology measures will be performed only after anti-tumor activity of lead SMIs will be determined, if compounds are found worthy of detailed study (Expt #3). This approach will maximize use of animals and resources. In brief, peripheral blood counts will be obtained; selected organs and tissues (lung, heart, liver, kidney, colon, bone marrow) will be harvested. Bone marrow cellularity and colony formation assay will be determined.

## Cc1cc(N(C)C)nc(Nc2ccc(NC(=O)Cc3ccccc3)cc2)n1 [MT-4]
OVCAR5 cells
  motility (scratch repair): inhibited
[1]
  inhibition of adhesion to FN relative to TG53: more active than TG53
[1]; 2 μM-25 μM
  cell adhesion to FN, dose dependence: dose-dependent inhibitory effect
SKOV3-GFP cells
  unattached OC cells recovered from the peritoneal cavity: attached less efficiently
SKOV3-GFP cells; listed as MT4
  unattached OC cells recovered from the peritoneal cavity: Increased numbers
SKOV3-GFP cells; nude mice, i.p., 2 hours
  adhesion of cancer cells to the peritoneum: prevented the adhesion
[2]
  inhibition of adhesion to FN relative to TG53: more active than TG53
[2]; 2 μM-25 μM
  cell adhesion to FN, dose dependence: dose-dependent inhibitory effect

## COc1ccc(Cl)cc1C(=O)Nc1ccc(Nc2nc(C)cc(N(C)C)n2)cc1 [TG53]
[3]
  adhesion to collagen: did not inhibit
[4]; IV
  AUC0-∞: 2913 ng·h/mL
  Cl/F: 0.12 L/h
  cmax: 4045 ng/mL
  t1/2: 3.4 h
  tmax: 0 h
[4]; i.p.
  AUC0-∞: 1212 ng·h/mL
  Cl/F: 0.29 L/h
  cmax: 1313 ng/mL
  t1/2: 19.5 h
  tmax: 0.5 h
[4]; ip administration
  t/2: 19.5 h
[4]; iv administration
  t/2: 3.4 h
